Experiments:
[1] = Cell viability (cytotoxicity) assay, normal tonsillar epithelial cells; type: cell-based; conditions: human, normal tonsillar epithelial cells (RRP008), surrogate for toxicity of normal tissue, read-out: Half maximal inhibitory concentration (IC50) in cell line cytotoxicity assays, Tonsillar Epithelia
[2] = tested on: Hepatocellular carcinoma cells (Hep3B, HepG2, and Huh7); assay: Cell viability (cytotoxicity) assay, hepatocellular carcinoma cells; type: cell-based; conditions: Homo sapiens; 48 hours, CCK8 or Alamar Blue; curves of Fig. 1f-j; read-out: Half maximal inhibitory concentration (IC50) in cell line cytotoxicity assays, Hepatocellular Carcinoma
[3] = tested on: NCI-60 Panel of Human Tumor Cell Line; type: cell-based; conditions: 10 µM, one-dose assay
[4] = target: T1, CDK9 (Homo sapiens, UniProt P50750); assay: In vitro kinase assay, CDK9; type: biochemical; conditions: Fig. 1b; italicized values from the literature (italics not visible)
T1 construct: purchased Reaction Biology

[5] = target: T2, BRD3 (BD2) (Homo sapiens, UniProt Q15059); assay: AlphaScreen bromodomain binding assay, BRD3 BD2; conditions: Fig. 1b; italicized values from the literature (italics not visible)
T2 construct: tagged bromodomains and acetylated histone peptides as; purchased Reaction Biology

[6] = target: T3, BRD3 (BD1) (Homo sapiens, UniProt Q15059); assay: AlphaScreen bromodomain binding assay, BRD3 BD1; conditions: Fig. 1b; italicized values from the literature (italics not visible)
T3 construct: tagged bromodomains and acetylated histone peptides as; purchased Reaction Biology

[7] = target: mTOR (Homo sapiens, UniProt P42345); assay: In vitro kinase assay, mTOR; type: biochemical; conditions: Fig. 1b; italicized values from the literature (italics not visible)
[8] = tested on: neuroblastoma cells (CHLA-255, CHLA-136, and SMS-KNCR); assay: Cell viability (cytotoxicity) assay, neuroblastoma cells; type: cell-based; conditions: Homo sapiens, 48 hours, CCK8 or Alamar Blue, curves of Fig. 1f-j, read-out: Half maximal inhibitory concentration (IC50) in cell line cytotoxicity assays, Neuroblastoma
[9] = tested on: pRb Ser780 (downstream surrogate of CDK4/6 activity); assay: Immunoblotting for Rb phosphorylation; type: cell-based, human; conditions: Huh7, CHLA-255 and Jeko-1 cells, stimulated with 50 ng/mL IGF-1, increasing concentrations, 30 minutes
From the text: (§1) from James Bradner (Dana-Farber Cancer Institute, Boston, MA). […]
(§2) from Novartis (Basel, Switzerland). Palbociclib was obtained from LC Laboratories (Woburn, MA). Recombinant human IGF-1 was from Peprotech (Rocky Hill, NJ). Antibodies specific for […]
(§3) Cell Signaling Technology (Beverly, MA). GAPDH antibody (GT239) was from GeneTex, Inc.
(§4) Molecular models were created to design and dock molecules in silico using the software engines AutoDock Vina1 and rDock2 and the crystal structures of BRD4 (PDB ID: 4CFK), PI3K (PDB ID: 4JPS) and CDK6 (PDB ID: 5L2T).
(§5) Bromodomain and kinase assays
(§6) Inhibition of BET family members was measured using Alpha Screen assays from Reaction Biology (Malvern, PA) with His -tagged bromodomains and acetylated histone peptides as ligands. CDK and PI3K isoform activities were measured using in vitro kinase assays from Reaction Biology and ThermoFisher Scientific (Waltham, MA), respectively. KINOME scan and BROMOscan assays were performed at Eurofins DiscoverX (Fremont, CA) with data analyzed […]
(§7) Protein expression and purification
(§8) BRD4 BD1 (aa 43-180) and BD2 (aa 342 -460) were expressed in E. coli BL21 (DE3) RIL in either Luria Broth or […] minimal media supplemented with 15NH4Cl. […]
(§9) or 100 µM in triplicate the following day. […] For CCK8, absorbance was measured at 450 nm; for Alamar Blue, fluorescence signals were read as emission at 590 nm after excitation at 560 nm. […]

[10] = target: T4, BRD2 (BD2) (Homo sapiens, UniProt P25440); assay: AlphaScreen bromodomain binding assay, BRD2 BD2; conditions: Fig. 1b; italicized values from the literature (italics not visible)
T4 construct: tagged bromodomains and acetylated histone peptides as; purchased Reaction Biology

[11] = target: T5, CDK2 (Homo sapiens, UniProt P24941); assay: In vitro kinase assay, CDK2; type: biochemical; conditions: Fig. 1b; italicized values from the literature (italics not visible)
T5 construct: purchased Reaction Biology

[12] = target: CDK4 (Homo sapiens, UniProt P11802); assay: In vitro kinase assay, CDK4; type: biochemical; conditions: Fig. 1b; italicized values from the literature (italics not visible)
[13] = target: T6, PI3Kδ (Homo sapiens, UniProt O00329); assay: In vitro kinase assay, PI3Kδ; type: biochemical; conditions: Fig. 1b; italicized values from the literature (italics not visible)
T6 construct: purchased ThermoFisher Scientific

[14] = tested on: pAKT Ser473 (downstream surrogate of PI3K activity); assay: Immunoblotting for Akt phosphorylation; type: cell-based, human; conditions: Huh7, CHLA-255 and Jeko-1 cells, stimulated with 50 ng/mL IGF-1, increasing concentrations, 30 minutes
From the text: as §1, §2, §3, §4, §5, §6, §7, §8, §9

[15] = tested on: bromodomain panel; assay: BROMOscan assay (Eurofins DiscoverX); type: binding
[16] = tested on: mantle cell lymphoma (Granta-519, Mino, and Jeko-1); assay: Cell viability (cytotoxicity) assay, mantle cell lymphoma cells; type: cell-based; conditions: Homo sapiens; 48 hours, CCK8 or Alamar Blue; curves of Fig. 1f-j; read-out: Half maximal inhibitory concentration (IC50) in cell line cytotoxicity assays, Mantle Cell Lymphoma

T3 sequence (Q15059 34-140 limits assumed): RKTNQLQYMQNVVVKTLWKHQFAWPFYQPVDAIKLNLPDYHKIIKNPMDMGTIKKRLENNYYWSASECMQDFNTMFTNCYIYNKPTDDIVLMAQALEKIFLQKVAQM
T4 sequence (P25440 344-453 limits assumed): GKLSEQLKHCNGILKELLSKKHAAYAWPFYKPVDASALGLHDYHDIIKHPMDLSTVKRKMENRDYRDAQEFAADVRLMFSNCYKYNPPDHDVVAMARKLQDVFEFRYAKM
T1 sequence (P50750 whole entry): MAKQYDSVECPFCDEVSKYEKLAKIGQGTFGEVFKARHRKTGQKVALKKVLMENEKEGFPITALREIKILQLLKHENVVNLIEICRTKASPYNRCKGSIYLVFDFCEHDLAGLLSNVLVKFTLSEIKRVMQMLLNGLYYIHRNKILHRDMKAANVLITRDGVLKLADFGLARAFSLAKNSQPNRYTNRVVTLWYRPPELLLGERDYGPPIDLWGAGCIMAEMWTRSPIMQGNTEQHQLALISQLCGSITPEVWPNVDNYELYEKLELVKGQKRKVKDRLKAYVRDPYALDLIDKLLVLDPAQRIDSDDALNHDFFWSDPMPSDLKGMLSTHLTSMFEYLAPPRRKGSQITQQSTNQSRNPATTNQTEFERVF
T1 sequence (O60563 whole entry partner): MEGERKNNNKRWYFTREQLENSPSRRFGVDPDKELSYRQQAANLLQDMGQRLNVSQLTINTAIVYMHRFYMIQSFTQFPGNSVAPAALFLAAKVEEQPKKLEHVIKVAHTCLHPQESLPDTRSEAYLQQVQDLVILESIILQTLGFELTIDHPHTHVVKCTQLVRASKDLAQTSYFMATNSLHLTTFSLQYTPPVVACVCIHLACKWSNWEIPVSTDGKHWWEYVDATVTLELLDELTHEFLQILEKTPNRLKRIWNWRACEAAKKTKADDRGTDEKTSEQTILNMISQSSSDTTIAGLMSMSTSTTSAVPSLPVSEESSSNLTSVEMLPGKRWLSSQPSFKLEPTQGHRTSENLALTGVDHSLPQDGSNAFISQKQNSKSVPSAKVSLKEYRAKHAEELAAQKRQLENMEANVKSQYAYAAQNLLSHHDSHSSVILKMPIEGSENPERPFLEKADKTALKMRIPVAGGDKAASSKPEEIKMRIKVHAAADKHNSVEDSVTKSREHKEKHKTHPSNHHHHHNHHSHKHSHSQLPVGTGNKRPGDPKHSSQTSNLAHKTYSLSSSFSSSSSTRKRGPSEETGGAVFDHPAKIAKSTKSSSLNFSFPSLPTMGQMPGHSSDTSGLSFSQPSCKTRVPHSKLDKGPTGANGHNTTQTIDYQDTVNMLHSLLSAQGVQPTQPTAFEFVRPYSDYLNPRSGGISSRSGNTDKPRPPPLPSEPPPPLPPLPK
T2 sequence (Q15059 306-415 limits assumed): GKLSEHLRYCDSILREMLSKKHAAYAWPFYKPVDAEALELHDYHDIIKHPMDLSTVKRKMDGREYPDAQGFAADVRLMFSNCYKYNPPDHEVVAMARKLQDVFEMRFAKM
T6 sequence (O00329 whole entry): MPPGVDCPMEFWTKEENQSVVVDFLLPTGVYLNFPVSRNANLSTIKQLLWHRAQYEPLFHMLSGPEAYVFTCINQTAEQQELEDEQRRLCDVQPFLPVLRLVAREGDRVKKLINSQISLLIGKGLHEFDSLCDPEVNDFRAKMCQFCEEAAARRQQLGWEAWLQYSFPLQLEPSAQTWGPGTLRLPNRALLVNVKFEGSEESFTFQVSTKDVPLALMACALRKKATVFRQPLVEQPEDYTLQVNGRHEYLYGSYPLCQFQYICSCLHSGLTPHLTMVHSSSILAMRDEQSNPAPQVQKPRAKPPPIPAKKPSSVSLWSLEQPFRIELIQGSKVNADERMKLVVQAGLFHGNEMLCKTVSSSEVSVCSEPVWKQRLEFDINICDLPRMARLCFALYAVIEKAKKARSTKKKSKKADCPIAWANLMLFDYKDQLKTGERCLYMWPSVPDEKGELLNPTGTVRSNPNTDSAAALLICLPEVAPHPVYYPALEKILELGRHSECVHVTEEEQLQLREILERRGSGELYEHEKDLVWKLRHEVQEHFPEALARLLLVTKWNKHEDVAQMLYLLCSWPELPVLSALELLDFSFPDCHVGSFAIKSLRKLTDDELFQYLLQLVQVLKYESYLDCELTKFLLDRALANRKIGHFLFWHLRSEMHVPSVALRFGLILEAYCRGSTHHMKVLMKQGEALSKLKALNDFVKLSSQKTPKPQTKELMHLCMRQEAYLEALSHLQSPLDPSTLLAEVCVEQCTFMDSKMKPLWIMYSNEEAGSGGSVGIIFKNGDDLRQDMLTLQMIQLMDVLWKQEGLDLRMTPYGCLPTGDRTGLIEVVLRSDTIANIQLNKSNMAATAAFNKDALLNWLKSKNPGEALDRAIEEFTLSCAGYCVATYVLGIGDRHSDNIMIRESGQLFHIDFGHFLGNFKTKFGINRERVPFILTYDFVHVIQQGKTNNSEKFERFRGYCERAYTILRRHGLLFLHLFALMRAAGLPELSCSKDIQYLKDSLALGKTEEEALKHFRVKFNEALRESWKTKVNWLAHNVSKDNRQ
T6 sequence (P27986 whole entry partner): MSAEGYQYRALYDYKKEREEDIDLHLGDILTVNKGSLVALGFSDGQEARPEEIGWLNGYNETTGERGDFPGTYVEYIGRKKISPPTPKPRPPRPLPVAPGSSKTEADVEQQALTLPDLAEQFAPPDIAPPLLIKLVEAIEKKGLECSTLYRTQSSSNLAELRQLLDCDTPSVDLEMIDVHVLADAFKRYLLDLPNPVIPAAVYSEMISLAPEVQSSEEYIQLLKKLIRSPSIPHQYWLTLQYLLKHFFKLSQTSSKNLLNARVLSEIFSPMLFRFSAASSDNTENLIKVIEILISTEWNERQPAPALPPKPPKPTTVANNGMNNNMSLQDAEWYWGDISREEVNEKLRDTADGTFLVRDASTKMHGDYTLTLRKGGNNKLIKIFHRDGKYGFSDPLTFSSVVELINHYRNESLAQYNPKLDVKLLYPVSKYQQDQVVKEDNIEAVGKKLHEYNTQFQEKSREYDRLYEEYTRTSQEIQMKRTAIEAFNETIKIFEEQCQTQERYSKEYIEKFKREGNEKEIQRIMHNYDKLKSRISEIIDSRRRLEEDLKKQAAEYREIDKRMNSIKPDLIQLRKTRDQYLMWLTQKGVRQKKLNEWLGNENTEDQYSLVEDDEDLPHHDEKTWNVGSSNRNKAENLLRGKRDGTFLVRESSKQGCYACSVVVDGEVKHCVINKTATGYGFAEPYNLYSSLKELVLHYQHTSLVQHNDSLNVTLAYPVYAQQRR
CDK4, sequence (P11802 whole entry): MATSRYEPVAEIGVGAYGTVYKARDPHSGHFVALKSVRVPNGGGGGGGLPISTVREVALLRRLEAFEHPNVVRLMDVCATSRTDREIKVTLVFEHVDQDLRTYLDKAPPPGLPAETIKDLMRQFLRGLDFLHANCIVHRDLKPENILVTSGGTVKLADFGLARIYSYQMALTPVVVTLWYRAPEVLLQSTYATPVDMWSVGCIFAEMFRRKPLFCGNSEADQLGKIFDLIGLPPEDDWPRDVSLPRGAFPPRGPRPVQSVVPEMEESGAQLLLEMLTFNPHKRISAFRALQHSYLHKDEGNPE
CDK4, sequence (P24385 whole entry partner): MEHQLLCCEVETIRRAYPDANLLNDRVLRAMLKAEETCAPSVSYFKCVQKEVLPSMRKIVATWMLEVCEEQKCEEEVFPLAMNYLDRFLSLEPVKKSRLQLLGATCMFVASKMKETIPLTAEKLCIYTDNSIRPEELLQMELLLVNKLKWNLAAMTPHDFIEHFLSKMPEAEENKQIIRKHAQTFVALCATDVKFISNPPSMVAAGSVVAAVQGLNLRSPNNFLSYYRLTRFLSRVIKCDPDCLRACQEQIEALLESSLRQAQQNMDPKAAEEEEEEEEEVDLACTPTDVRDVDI

CN(C)C(=O)c1cc2cnc(Nc3ccc(-c4csc5c(=O)cc(N6CCOCC6)oc45)cc3)nc2n1C1CCCC1 [SRX3177]
IC50 at 48 h [1]: 34000 nM
IC50 [2]: 640 nM
cytotoxic effect in the NCI-60 panel [3]: cytotoxic effects on the majority of the cell lines tested
tumor cytotoxicity compared to SF2523 or SRX3177P ([3]; NCI-60 panel): greater tumor cytotoxicity
IC50 [4]: < 2 nM
IC50 [5]: 226 nM
IC50 [6]: 106 nM
IC50 [7]: 6910 nM
IC50 [8]: 550 nM
levels of Rb phosphorylation [9]: decrease in levels of Rb phosphorylation
IC50 [10]: 994 nM
IC50 [11]: 500 nM
IC50 [12]: < 2.5 nM
IC50 [13]: 83 nM
levels of Akt phosphorylation [14]: decrease in levels
specificity in BROMOscan [15]: lack of off-targeting
IC50 [16]: 830 nM
